{
  "source": "paper PMC11530689",
  "about": "“Anti colorectal cancer activity and in silico studies of novel pyridine nortopsentin analog as cyclin dependent kinase 6 inhibitor” (Scientific Reports, 2024)",
  "test_in_all_cases": "NCI 60 cell line screen",
  "key": {"786-0": {"system": "786-0", "assay_type": "cell-based", "conditions": "786-0, Renal Cancer; single concentration 10^−5 M", "how_it_was_run": "(§1)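 Compounds were sent to NCI, applied to the 60-line cancer panel at 10^-5 M, and scored for cytotoxic effect.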"}, "A498": {"system": "A498", "assay_type": "cell-based", "conditions": "A498, Renal Cancer; single concentration 10^−5 M", "how_it_was_run": "as §1"}, "A549/ATCC": {"system": "A549/ATCC", "assay_type": "cell-based", "conditions": "Non-Small Cell Lung Cancer, single concentration 10^−5 M", "how_it_was_run": "as §1"}, "BT-549": {"system": "BT-549", "assay_type": "cell-based", "conditions": "BT-549, Breast Cancer; single concentration 10^−5 M", "how_it_was_run": "as §1"}, "CAKI-1": {"system": "CAKI-1", "assay_type": "cell-based", "conditions": "CAKI-1, Renal Cancer; single concentration 10^−5 M", "how_it_was_run": "as §1"}, "COLO205": {"system": "COLO205", "assay_type": "cell-based", "conditions": "COLO205, Colon Cancer; single concentration 10^−5 M", "how_it_was_run": "as §1"}, "EKVX": {"system": "EKVX", "assay_type": "cell-based", "conditions": "Non-Small Cell Lung Cancer, single concentration 10^−5 M", "how_it_was_run": "as §1"}, "HCC-2998": {"system": "HCC-2998", "assay_type": "cell-based", "conditions": "HCC-2998, Colon Cancer; single concentration 10^−5 M", "how_it_was_run": "as §1"}, "HCT-15": {"system": "HCT-15", "assay_type": "cell-based", "conditions": "HCT-15, Colon Cancer; single concentration 10^−5 M", "how_it_was_run": "as §1"}, "HT29": {"system": "HT29", "assay_type": "cell-based", "conditions": "HT29, Colon Cancer; single concentration 10^−5 M", "how_it_was_run": "as §1"}, "IGROV1": {"system": "IGROV1", "assay_type": "cell-based", "conditions": "IGROV1, Ovarian Cancer; single concentration 10^−5 M", "how_it_was_run": "as §1"}, "KM12": {"system": "KM12", "assay_type": "cell-based", "conditions": "KM12, Colon Cancer; single concentration 10^−5 M", "how_it_was_run": "as §1"}, "M14": {"system": "M14", "assay_type": "cell-based", "conditions": "M14, Melanoma; single concentration 10^−5 M", "how_it_was_run": "as §1"}, "MCF7": {"system": "MCF7", "assay_type": "cell-based", "conditions": "MCF7, Breast Cancer; single concentration 10^−5 M", "how_it_was_run": "as §1"}, "MDA-MB-231/ATCC": {"system": "MDA-MB-231/ATCC", "assay_type": "cell-based", "conditions": "Breast Cancer, single concentration 10^−5 M", "how_it_was_run": "as §1"}, "MDA-MB-435": {"system": "MDA-MB-435", "assay_type": "cell-based", "conditions": "MDA-MB-435, Melanoma; single concentration 10^−5 M", "how_it_was_run": "as §1"}, "MDA-MB-468": {"system": "MDA-MB-468", "assay_type": "cell-based", "conditions": "MDA-MB-468, Breast Cancer; single concentration 10^−5 M", "how_it_was_run": "as §1"}, "NCI-H226": {"system": "NCI-H226", "assay_type": "cell-based", "conditions": "NCI-H226, Non-Small Cell Lung Cancer; single concentration 10^−5 M", "how_it_was_run": "as §1"}, "NCI-H23": {"system": "NCI-H23", "assay_type": "cell-based", "conditions": "NCI-H23, Non-Small Cell Lung Cancer; single concentration 10^−5 M", "how_it_was_run": "as §1"}, "NCI/ADR-RES": {"system": "NCI/ADR-RES", "assay_type": "cell-based", "conditions": "Ovarian Cancer, single concentration 10^−5 M", "how_it_was_run": "as §1"}, "OVCAR-3": {"system": "OVCAR-3", "assay_type": "cell-based", "conditions": "OVCAR-3, Ovarian Cancer; single concentration 10^−5 M", "how_it_was_run": "as §1"}, "OVCAR-4": {"system": "OVCAR-4", "assay_type": "cell-based", "conditions": "OVCAR-4, Ovarian Cancer; single concentration 10^−5 M", "how_it_was_run": "as §1"}, "OVCAR-8": {"system": "OVCAR-8", "assay_type": "cell-based", "conditions": "OVCAR-8, Ovarian Cancer; single concentration 10^−5 M", "how_it_was_run": "as §1"}, "PC-3": {"system": "PC-3", "assay_type": "cell-based", "conditions": "PC-3, Prostate Cancer; single concentration 10^−5 M", "how_it_was_run": "as §1"}, "RPMI-8226": {"system": "RPMI-8226", "assay_type": "cell-based", "conditions": "RPMI-8226, Leukemia; single concentration 10^−5 M", "how_it_was_run": "as §1"}, "RXF 393": {"system": "RXF 393", "assay_type": "cell-based", "conditions": "RXF 393, Renal Cancer; single concentration 10^−5 M", "how_it_was_run": "as §1"}, "SF-539": {"system": "SF-539", "assay_type": "cell-based", "conditions": "SF-539, CNS Cancer; single concentration 10^−5 M", "how_it_was_run": "as §1"}, "SK-MEL-5": {"system": "SK-MEL-5", "assay_type": "cell-based", "conditions": "SK-MEL-5, Melanoma; single concentration 10^−5 M", "how_it_was_run": "as §1"}, "SK-OV-3": {"system": "SK-OV-3", "assay_type": "cell-based", "conditions": "SK-OV-3, Ovarian Cancer; single concentration 10^−5 M", "how_it_was_run": "as §1"}, "SNB-75": {"system": "SNB-75", "assay_type": "cell-based", "conditions": "SNB-75, CNS Cancer; single concentration 10^−5 M", "how_it_was_run": "as §1"}, "TK-10": {"system": "TK-10", "assay_type": "cell-based", "conditions": "TK-10, Renal Cancer; single concentration 10^−5 M", "how_it_was_run": "as §1"}, "U251": {"system": "U251", "assay_type": "cell-based", "conditions": "U251, CNS Cancer; single concentration 10^−5 M", "how_it_was_run": "as §1"}, "UACC-257": {"system": "UACC-257", "assay_type": "cell-based", "conditions": "UACC-257, Melanoma; single concentration 10^−5 M", "how_it_was_run": "as §1"}, "UACC-62": {"system": "UACC-62", "assay_type": "cell-based", "conditions": "UACC-62, Melanoma; single concentration 10^−5 M", "how_it_was_run": "as §1"}, "UO-31": {"system": "UO-31", "assay_type": "cell-based", "conditions": "UO-31, Renal Cancer; single concentration 10^−5 M", "how_it_was_run": "as §1"}, "HCT-116": {"system": "HCT-116", "assay_type": "cell-based, human", "conditions": "HCT-116, Colon Cancer; single concentration 10^−5 M", "how_it_was_run": "as §1"}},
  "data": [
    {"smiles": "N#Cc1c(-c2ccc(O)cc2)cc(-c2c[nH]c3ccccc23)nc1-c1c[nH]c2ccccc12", "note": "[4j]", "values": [
      {"measurement": "Growth %", "setting": "786-0", "result": 101.37, "unit": "%"},
      {"measurement": "Growth %", "setting": "A498", "result": 110.66, "unit": "%"},
      {"measurement": "Growth %", "setting": "A549/ATCC", "result": 105.12, "unit": "%"},
      {"measurement": "Growth %", "setting": "BT-549", "result": 96.81, "unit": "%"},
      {"measurement": "Growth %", "setting": "CAKI-1", "result": 90.60, "unit": "%"},
      {"measurement": "Growth %", "setting": "COLO205", "result": 111.37, "unit": "%"},
      {"measurement": "Growth %", "setting": "EKVX", "result": 100.08, "unit": "%"},
      {"measurement": "Growth %", "setting": "HCC-2998", "result": 126.05, "unit": "%"},
      {"measurement": "Growth %", "setting": "HCT-15", "result": 57.19, "unit": "%"},
      {"measurement": "Growth %", "setting": "HT29", "result": 111.48, "unit": "%"},
      {"measurement": "Growth %", "setting": "IGROV1", "result": 76.43, "unit": "%"},
      {"measurement": "Growth %", "setting": "KM12", "result": 96.89, "unit": "%"},
      {"measurement": "Growth %", "setting": "M14", "result": 100.26, "unit": "%"},
      {"measurement": "Growth %", "setting": "MCF7", "result": 87.55, "unit": "%"},
      {"measurement": "Growth %", "setting": "MDA-MB-231/ATCC", "result": 92.33, "unit": "%"},
      {"measurement": "Growth %", "setting": "MDA-MB-435", "result": 90.35, "unit": "%"},
      {"measurement": "Growth %", "setting": "MDA-MB-468", "result": 101.94, "unit": "%"},
      {"measurement": "Growth %", "setting": "NCI-H226", "result": 86.10, "unit": "%"},
      {"measurement": "Growth %", "setting": "NCI-H23", "result": 89.30, "unit": "%"},
      {"measurement": "Growth %", "setting": "NCI/ADR-RES", "result": 102.41, "unit": "%"},
      {"measurement": "Growth %", "setting": "OVCAR-3", "result": 92.93, "unit": "%"},
      {"measurement": "Growth %", "setting": "OVCAR-4", "result": 94.07, "unit": "%"},
      {"measurement": "Growth %", "setting": "OVCAR-8", "result": 99.60, "unit": "%"},
      {"measurement": "Growth %", "setting": "PC-3", "result": 98.38, "unit": "%"},
      {"measurement": "Growth %", "setting": "RPMI-8226", "result": 101.54, "unit": "%"},
      {"measurement": "Growth %", "setting": "RXF 393", "result": 83.24, "unit": "%"},
      {"measurement": "Growth %", "setting": "SF-539", "result": 66.62, "unit": "%"},
      {"measurement": "Growth %", "setting": "SK-MEL-5", "result": 84.85, "unit": "%"},
      {"measurement": "Growth %", "setting": "SK-OV-3", "result": 96.54, "unit": "%"},
      {"measurement": "Growth %", "setting": "SNB-75", "result": 90.85, "unit": "%"},
      {"measurement": "Growth %", "setting": "TK-10", "result": 149.07, "unit": "%"},
      {"measurement": "Growth %", "setting": "U251", "result": 96.90, "unit": "%"},
      {"measurement": "Growth %", "setting": "UACC-257", "result": 108.53, "unit": "%"},
      {"measurement": "Growth %", "setting": "UACC-62", "result": 96.73, "unit": "%"},
      {"measurement": "Growth %", "setting": "UO-31", "result": 78.37, "unit": "%"},
      {"measurement": "Growth %", "setting": "HCT-116", "result": 105.38, "unit": "%"}
    ]}
  ]
}
